From patent US20230250095A1, “BENZIMIDAZOLE DERIVATIVES, PREPARATION METHOD THEREFOR AND MEDICAL USE THEREOF” (TUOJIE BIOTECH(SHANGHAI) CO., LTD., priority 2020, published 2023)

Legend:
[1] = Caco-2 permeability assay; format: in vitro ADME; details: human
Method: The apparent permeability coefficient (Papp) of the analytical drug was determined by liquid chromatography-tandem mass spectrometry (LC/MS/MS) through a Caco-2 cell model.
The transfer rate of drug from the apical end to the basal end was determined. 108 μL of HBSS (25 mM HEPES, pH 7.4) containing 10 μM test compound was added to the apical end of the upper chamber of Transwell (purchased from Corning) containing Caco-2 cells (purchased from ATCC) at a density of 6.86×10^5 cells/cm^2, and meanwhile, 8 μL of the sample was added, as an initial dosing-end sample (A-B), to a new 96-well plate to which 72 μL of HBSS (25 mM HEPES, pH 7.4) and 240 μL of acetonitrile (containing 100 nM alprazolam, 200 nM caffeine and 100 nM tolbutamide) had been added, and the plate was vortexed at 1000 rpm for 10 min. 300 μL of HBSS (25 mM HEPES, pH 7.4) was added to the basal end.
The transfer rate of drug from the basal end to the apical end was determined. 308 μL of HBSS (25 mM HEPES, pH 7.4) containing 10 μM test compound was added to wells of the basal end of the plate, and meanwhile, 8 μL of the sample was added, as an initial dosing-end sample (B-A), to a new 96-well plate to which 72 μL of HBSS (25 mM HEPES, pH 7.4) and 240 μL of acetonitrile (containing 100 nM alprazolam, 200 nM caffeine and 100 nM tolbutamide) had been added. The plate was vortexed at 1000 rpm for 10 min, and 100 μL of HBSS (25 mM HEPES, pH 7.4) was added to the apical end.
The transfer rate from the apical end to the basal end and the transfer rate from the basal end to the apical end need to be determined simultaneously.
At the end of the transfer cycle, 8 μL of the sample was taken from the dosing end (apical end of A-B flow and basal end of B-A flow) and added to 72 μL of HBSS (25 mM HEPES, pH 7.4) and 240 μL of acetonitrile (containing 100 nM alprazolam, 200 nM caffeine and 100 nM tolbutamide), and the mixture was added to a new 96-well plate. 80 μL of the liquid was taken directly from each of the basal end of the A-B flow and the apical end of the B-A flow, and added together with 240 μL of acetonitrile (containing 100 nM alprazolam, 200 nM caffeine and 100 nM tolbutamide) to a new 96-well plate. The plates were vortexed at 1000 rpm for 10 min. The samples were centrifuged at 4000 rpm for 30 min. 100 μL of the supernatant was transferred to a new 96-well plate. All samples were analyzed by LC-MS/MS with 100 μL of pure water.
Data were calculated using Microsoft Excel and peak areas were calculated from the chromatograms. The apparent permeability coefficient (Papp) is in cm/s and is calculated using the following formula: […]
Papp is apparent permeability (cm/s×10^−6);
The outflow ratio can be determined by the following equation: […]

[2] = In vivo pharmacokinetic experiment in rats, intragastric administration; details: SD rats, 5 mg/kg
Method: The drug concentrations in the plasma of the test animals (rats) at different time points after intragastric administration of the compound of the present disclosure were determined by an LC/MS/MS method. The pharmacokinetic behavior in rats of the compound of the present disclosure was studied and its pharmacokinetic profile was evaluated.
Male, healthy SD rats of SPF grade, 6-8 weeks old, 3 rats in each group.
Intragastric administration: a certain amount of compound was weighed and prepared into a 1 mg/mL white suspension by adding 0.5% by volume of hydroxypropyl methylcellulose, 0.1% by volume of tween 80 and 99.4% by volume of water.
SD rats were administered intragastrically with compound 4 or BLU-5937 at a dose of 5 mg/kg after fasting overnight.
Rats were administered intragastrically with the compound of the present disclosure. 0.2 mL of blood was collected from the jugular vein at 0.25 h, 0.5 h, 1 h, 2 h, 4 h, 8 h and 24 h after the administration, placed in a tube containing EDTA-K2, separated by centrifugation at 4° C. at 4000 rpm for 5 min to obtain plasma, which was stored at −75° C.
Determination of the content of the test compounds at different concentrations in the plasma of rats after intragastric administration: 50 μL of rat plasma at each time point after the administration was taken, 200 μL of a solution of internal standard dexamethasone (50 ng/mL) in acetonitrile was added thereto, and the mixture was vortexed for 30 s to be mixed well, centrifuged at 4° C. at 4700 rpm for 15 min. The supernatant of the plasma sample was subjected to 3-fold dilution with water, and 2.0 μL of the dilution was taken for LC/MS/MS analysis.

Papp A→B at 10 μM ([1]; Caco-2, 10 μM test compound, apical to basal, pH 7.4): 2.4 ×10⁻⁶ cm/s
efflux ratio at 10 μM ([1]; Caco-2, Papp (B-A)/Papp (A-B), read-out: Outflow ratio): 1.2
V [2]: 1.09 L/kg
Tmax ([2]; male, rat, plasma, po): 0.25 h
half-life ([2]; male, rat, plasma, po): 2.9 h
AUC(0-t) ([2]; male, rat, po, plasma): 361 ng·h/mL
Cmax ([2]; male, rat, po, plasma): 151 ng/mL
SMILES: CNC(=O)c1cc(F)c(-c2nc3cc(C)ccn3c2C[C@H]2CN(C(=O)OC)CCO2)c(F)c1 [BLU-5937, reference compound]
